According to ChEMBL document CHEMBL1201862, “PubChem BioAssay data set” (2004):
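Growth conditions: 96-well plates. Treatment: test compound, 48 hours, 5 concentrations. Analysis: linear interpolation between bracketing concentrations; unreached endpoints set to highest concentration. GI50 marks 50% less growth.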 Calls of active or inactive are those of the source. No stated cut-off is given here; in the data, active = GI50 up to about 1.1 µM and inactive = higher.

Columns and labels:
Experiment in all cases: NCI-60 cell line screen, 48 h
[1] = tested on: OVCAR-8
[2] = tested on: OVCAR-5
[3] = tested on: CCRF-CEM
[4] = tested on: HT-29
[5] = tested on: Hs-578T
[6] = tested on: M14
[7] = tested on: OVCAR-4
[8] = tested on: HCT-116
[9] = tested on: COLO 205
[10] = tested on: NCI-H460
[11] = tested on: KM12
[12] = tested on: UACC-257
[13] = tested on: A549
[14] = tested on: RXF 393
[15] = tested on: LOX IMVI
[16] = tested on: SF-539
[17] = tested on: T47D

Measured: GI50

CC1CC(NN)=Nc2ccccc2N1 (stereo not given)
inactive: [1] > 100 µM | [2] > 100 µM | [3] 40.3 µM | [4] > 100 µM | [5] > 100 µM | [6] > 100 µM | [7] > 100 µM | [8] > 100 µM | [9] > 100 µM | [10] > 100 µM | [11] > 100 µM | [12] > 100 µM | [13] > 100 µM

O=C1c2ccccc2C(=O)c2c1c1cc(O)ccc1n2Cc1ccc(Cl)cc1Cl
inactive: [1] 4.57 µM | [2] 1.89 µM | [14] 2.14 µM | [3] 4.12 µM | [15] 2.9 µM | [4] 16.6 µM | [5] 14 µM | [16] 3.97 µM | [6] 15.9 µM | [7] 1.9 µM | [8] 6.18 µM | [9] 15.1 µM | [10] 3.63 µM | [11] 14.4 µM | [12] 25.1 µM | [13] 3.27 µM

CCC1(CC)C(=O)OC(=O)C1(CC)CC
inactive: [1] > 100 µM | [17] > 100 µM | [3] > 100 µM | [15] > 100 µM | [4] > 100 µM | [5] 15.2 µM | [16] > 100 µM | [6] > 100 µM | [7] > 100 µM | [8] > 100 µM | [9] > 100 µM | [10] > 100 µM | [11] > 100 µM | [13] > 100 µM

CC1CC(C(=O)OC2OC(COC3OC(CO)C(OC4OC(C)C(O)C(O)C4O)C(O)C3O)C(O)C(O)C2O)C2CCC3(C)C(=CCC4(C)C3CCC3C(C)(CO)C(O)C(O)CC34C)C2C1C (stereo not given)
inactive: [1] 17.4 µM | [17] 18.4 µM | [2] 26.7 µM | [3] 21.9 µM | [15] 21.7 µM | [4] 21.8 µM | [5] 17.7 µM | [16] 18.4 µM | [6] 35.7 µM | [7] 15.1 µM | [8] 18.2 µM | [9] 17.3 µM | [10] 20.7 µM | [11] 17.9 µM | [12] > 10 µM | [13] 96.6 µM

O=S1(=O)N=C(SCc2c[nH]c3ccccc23)N(c2ccccc2)c2ccncc21
inactive: [1] > 100 µM | [17] 21.3 µM | [2] 94.2 µM | [3] 41.4 µM | [15] 35.4 µM | [4] > 100 µM | [5] > 100 µM | [16] 22.8 µM | [6] > 100 µM | [7] > 100 µM | [8] > 100 µM | [9] > 100 µM | [10] > 100 µM | [11] > 100 µM | [12] > 100 µM | [13] > 100 µM

Cc1cc(C)c(C(=O)c2nnc3ccccc3c2N)c(C)c1
inactive: [17] 16.6 µM | [2] 15.8 µM | [3] 31 µM | [15] 16 µM | [4] 25.5 µM | [5] 24 µM | [6] 13.9 µM | [8] 10.3 µM | [9] 15.2 µM | [11] 16.4 µM | [12] 37.9 µM | [13] 23.3 µM

CCC[C@H](O)[C@@H](CNc1cc(NC(C)=O)nc(NC(C)=O)n1)N(Cc1ccccc1)Cc1ccccc1
inactive: [1] 13.7 µM | [2] 27.9 µM | [3] > 10 µM | [15] 27.9 µM | [5] 14 µM | [6] 26.5 µM | [7] 15.7 µM | [8] 16.6 µM | [9] 26.3 µM | [10] 21.8 µM | [11] 11.1 µM | [12] 29.2 µM | [13] 13.2 µM
